Results on 22 compounds are retold here after patent publication US20090131431A1, “Pyrazolo[3,4-b]pyridine compounds, and their use as a PDE4 inhibitors” (priority 2005, published 2009).

This assay deals with T1, PDE4B (human recombinant) (Homo sapiens, UniProt Q07343).
T1 construct: made in house
The experiment in a line: Inhibition of PDE4B activity: SPA and/or Fluorescence Polarisation (FP) assay. Type of assay: biochemical. The conditions noted are these: one reading (n=1) or average of 2 or more readings, read-out: PDE4B pIC50 (±about 0.5) (converted). Here is the method:
The ability of compounds to inhibit catalytic activity at PDE4B or 4D (human recombinant), PDE3 (from bovine aorta), PDE5 (human recombinant) or PDE6 (from bovine retina) can optionally be determined by Scintillation Proximity Assay (SPA) in a 96-well format.
The enzyme concentration is adjusted so that no more than 20% hydrolysis of the substrate defined below occurs in control wells without compound, during the incubation. For the PDE3, PDE4B and PDE4D assays, [5′,8-3H]Adenosine 3′,5′-cyclic phosphate (Amersham Pharmacia Biotech, code TRK.559; or Amersham Biosciences UK Ltd, Pollards Wood, Chalfont St Giles, Buckinghamshire HP8 4SP, UK) is added to give 0.05 uCi per well and about 10 nM final concentration. […] Plates containing assay mixture, suitably approx. 100 ul volume of assay mixture, are mixed on an orbital shaker for 5 minutes and incubated at ambient temperature for 1 hour. Phosphodiesterase SPA beads (Amersham Pharmacia Biotech, code RPNQ 0150) are added (about 1 mg per well) to terminate the assay. Plates are sealed and shaken and allowed to stand at ambient temperature for 35 minutes to 1 hour (suitably 35 minutes) to allow the beads to settle. […] Curves are analysed using ActivityBase and XLfit (ID Business Solutions Limited, 2 Ocean Court, Surrey Research Park, Guildford, Surrey GU2 7QB, United Kingdom). Results are expressed as pIC50 values.
The ability of compounds to inhibit catalytic activity at PDE4B (human recombinant) or PDE4D (human recombinant) can optionally be determined by IMAP Fluorescence Polarisation (FP) assay (IMAP Explorer kit, available from Molecular Devices Corporation, Sunnydale, Calif., USA; Molecular Devices code: R8062) in 384-well format.
The IMAP FP assay is able to measure PDE activity in an homogenous, non-radioactive assay format. The FP assay uses the ability of immobilised trivalent metal cations, coated onto nanoparticles (tiny beads), to bind the phosphate group of Fl-AMP that is produced on the hydrolysis of fluorescein-labelled (Fl) cyclic adenosine mono-phosphate (Fl-cAMP) to the non-cyclic Fl-AMP form. […] Binding of Fl-AMP product to the beads (coated with the immobilised trivalent cations) slows the rotation of the bound Fl-AMP and leads to an increase in the fluorescence polarisation ratio of parallel to perpendicular light. Inhibition of the PDE reduces/inhibits this signal increase.
The enzyme level is set by experimentation so that reaction is linear throughout the incubation. Fluorescein adenosine 3′,5′-cyclic phosphate (from Molecular Devices Corporation, Molecular Devices code: R7091) is added to give about 40 nM final concentration (final assay volume usually ca. 20-40 ul, suitably ca. 20 ul). Plates are mixed on an orbital shaker for 10 seconds and incubated at ambient temperature for 40 minutes. IMAP binding reagent (as described above, from Molecular Devices Corporation, Molecular Devices code: R7207) is added (60 ul of a 1 in 400 dilution in binding buffer of the kit stock solution) to terminate the assay. Plates are allowed to stand at ambient temperature for 1 hour. The Fluorescence Polarisation (FP) ratio of parallel to perpendicular light is measured using an Analyst™ plate reader (from Molecular Devices Corporation). […] Curves are analysed using ActivityBase and XLfit (ID Business Solutions Limited, 2 Ocean Court, Surrey Research Park, Guildford, Surrey GU2 7QB, United Kingdom). Results are expressed as plC50 values.

Counter-ions that a name gives are not always drawn.

T1 sequence (Q07343 1-564 isoform Q07343-2): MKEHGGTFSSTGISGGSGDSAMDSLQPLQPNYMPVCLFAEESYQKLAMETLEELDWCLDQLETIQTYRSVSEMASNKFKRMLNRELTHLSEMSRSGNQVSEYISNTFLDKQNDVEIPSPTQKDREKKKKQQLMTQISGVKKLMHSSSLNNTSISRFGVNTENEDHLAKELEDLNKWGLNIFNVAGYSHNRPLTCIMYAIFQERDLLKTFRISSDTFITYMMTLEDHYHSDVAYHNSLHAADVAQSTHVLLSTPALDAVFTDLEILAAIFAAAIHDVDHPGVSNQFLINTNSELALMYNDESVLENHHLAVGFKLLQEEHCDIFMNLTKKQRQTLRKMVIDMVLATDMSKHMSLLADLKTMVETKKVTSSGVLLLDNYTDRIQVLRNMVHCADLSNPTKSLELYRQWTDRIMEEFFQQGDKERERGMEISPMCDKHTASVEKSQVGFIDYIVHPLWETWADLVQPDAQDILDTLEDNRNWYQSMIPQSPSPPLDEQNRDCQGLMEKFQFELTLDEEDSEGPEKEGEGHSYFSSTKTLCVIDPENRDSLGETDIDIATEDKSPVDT

As for `CCc1nc2c(cnn2CC)c(NC2CCOCC2)c1CNC(=O)NCCc1ccccc1` [Example 202, N-{[1,6-diethyl-4-(tetrahydro-2H-pyran-4-ylamino)-1H-pyrazolo[3,4-b]pyridin-5-yl]methyl}-N′-(2-phenylethyl)urea], the IC50 is 0.126 to 1 nM.
With `CCc1nc2c(cnn2CC)c(NC2CCOCC2)c1CNC(=O)Nc1ccccc1` [Example 203, N-{[1,6-diethyl-4-(tetrahydro-2H-pyran-4-ylamino)-1H-pyrazolo[3,4-b]pyridin-5-yl]methyl}-N′-phenylurea], the IC50 is 0.126 to 1 nM.
On to `CCc1nc2c(cnn2CC)c(NC2CCN(C(N)=O)CC2)c1CNC(=O)c1ccc(N2CCCCC2)cc1` [Example 204, 4-({1,6-diethyl-5-[({[4-(1-piperidinyl)phenyl]carbonyl}amino)methyl]-1H-pyrazolo[3,4-b]pyridin-4-yl}amino)-1-piperidinecarboxamide], for which the IC50 was 0.01 to 0.1 nM.
For the compound `CCc1nc2c(cnn2CC)c(NC2CCN(C(N)=O)CC2)c1CNC(=O)c1cccc2c1OCC2` [Example 205, 4-[(5-{[(2,3-dihydro-1-benzofuran-7-ylcarbonyl)amino]methyl}-1,6-diethyl-1H-pyrazolo[3,4-b]pyridin-4-yl)amino]-1-piperidinecarboxamide], the IC50 is 0.01 to 0.1 nM.
For `CCc1nc2c(cnn2CC)c(NC2CCN(C(N)=O)CC2)c1CNC(=O)c1ccc2c(c1)CCC2` [Example 206, 4-[(5-{[(2,3-dihydro-1H-inden-5-ylcarbonyl)amino]methyl}-1,6-diethyl-1H-pyrazolo[3,4-b]pyridin-4-yl)amino]-1-piperidinecarboxamide] the value was 0.126 to 1 nM; for `CCc1nc2c(cnn2CC)c(NC2CCN(C(N)=O)CC2)c1CNC(=O)c1ccc(N2CCOCC2)cc1` [Example 207, 4-({1,6-diethyl-5-[({[4-(4-morpholinyl)phenyl]carbonyl}amino)methyl]-1H-pyrazolo[3,4-b]pyridin-4-yl}amino)-1-piperidinecarboxamide], 0.01 to 0.1 nM.
Turning to `CCc1nc2c(cnn2CC)c(NC2CCN(C(N)=O)CC2)c1CNC(=O)c1ccc(C(C)C)cc1` [Example 208, 4-({1,6-diethyl-5-[({[4-(1-methylethyl)phenyl]carbonyl}amino)methyl]-1H-pyrazolo[3,4-b]pyridin-4-yl}amino)-1-piperidinecarboxamide], the IC50 is 0.01 to 0.1 nM.
Consider `CCc1nc2c(cnn2CC)c(NC2CCN(C(N)=O)CC2)c1CNC(=O)c1ccc(N2CCCC2=O)cc1` [Example 209, 4-({1,6-diethyl-5-[({[4-(2-oxo-1-pyrrolidinyl)phenyl]carbonyl}amino)methyl]-1H-pyrazolo[3,4-b]pyridin-4-yl}amino)-1-piperidinecarboxamide], for which the IC50 was 0.01 to 0.1 nM.
`CCc1nc2c(cnn2CC)c(NC2CCN(C(N)=O)CC2)c1CNC(=O)c1ccc(C2CCCC2)cc1` [Example 210, 4-{[5-({[(4-cyclopentylphenyl)carbonyl]amino}methyl)-1,6-diethyl-1H-pyrazolo[3,4-b]pyridin-4-yl]amino}-1-piperidinecarboxamide]: the IC50 is 0.01 to 0.1 nM.
Take `CCc1nc2c(cnn2CC)c(NC2CCN(C(N)=O)CC2)c1CNC(=O)c1ccccc1O` [Example 211, 4-{[1,6-diethyl-5-({[(2-hydroxyphenyl)carbonyl]amino}methyl)-1H-pyrazolo[3,4-b]pyridin-4-yl]amino}-1-piperidinecarboxamide]: the IC50 was 0.01 to 0.1 nM.
In the case of `CCc1nc2c(cnn2CC)c(NC2CCN(C(N)=O)CC2)c1CN1Cc2ccccc2C1=O` [Example 212, [4-({1,6-diethyl-5-[(1-oxo-1,3-dihydro-2H-isoindol-2-yl)methyl]-1H-pyrazolo[3,4-b]pyridin-4-yl}amino)-1-piperidinecarboxamide], Formate], the IC50 is 0.01 to 0.1 nM.
For the compound `CCn1ncc2c(NC3CCOCC3)c(CNC(=O)c3ccc(-n4cccc4)nc3)c(C)nc21` [Example 214, N-{[1-ethyl-6-methyl-4-(tetrahydro-2H-pyran-4-ylamino)-1H-pyrazolo[3,4-b]pyridin-5-yl]methyl}-6-(1H-pyrrol-1-yl)-3-pyridinecarboxamide], the IC50 is 0.126 to 1 nM.
To `CCn1ncc2c(NC3CCOCC3)c(CNC(=O)c3cccc(N4CCCC4=O)c3)c(C)nc21` [Example 216, N-{[1-ethyl-6-methyl-4-(tetrahydro-2H-pyran-4-ylamino)-1H-pyrazolo[3,4-b]pyridin-5-yl]methyl}-3-(2-oxo-1-pyrrolidinyl)benzamide] belongs 0.126 to 1 nM.
Regarding `CCn1ncc2c(NC3CCOCC3)c(CNC(=O)c3ccco3)c(C)nc21` [Example 218, N-{[1-ethyl-6-methyl-4-(tetrahydro-2H-pyran-4-ylamino)-1H-pyrazolo[3,4-b]pyridin-5-yl]methyl}-2-furancarboxamide], the IC50 is 0.126 to 1 nM.
In the case of `CCOc1ccccc1C(=O)NCc1c(C)nc2c(cnn2CC)c1NC1CCOCC1` [Example 219, N-{[1-ethyl-6-methyl-4-(tetrahydro-2H-pyran-4-ylamino)-1H-pyrazolo[3,4-b]pyridin-5-yl]methyl}-2-(ethyloxy)benzamide], the IC50 is 0.126 to 1 nM.
In the case of `CCn1ncc2c(NC3CCOCC3)c(CNC(=O)c3cccc4c3OCC4)c(C)nc21` [Example 220, N-{[1-ethyl-6-methyl-4-(tetrahydro-2H-pyran-4-ylamino)-1H-pyrazolo[3,4-b]pyridin-5-yl]methyl}-2,3-dihydro-1-benzofuran-7-carboxamide], the IC50 was 0.01 to 0.1 nM.
On to `CCn1ncc2c(NC3CCOCC3)c(CNC(=O)c3cc(C)on3)c(C)nc21` [Example 225, N-{[1-ethyl-6-methyl-4-(tetrahydro-2H-pyran-4-ylamino)-1H-pyrazolo[3,4-b]pyridin-5-yl]methyl}-5-methyl-3-isoxazolecarboxamide], for which the IC50 is 0.126 to 1 nM.
`CCn1ncc2c(NC3CCOCC3)c(CNC(=O)c3cncs3)c(C)nc21` [Example 226, N-{[1-ethyl-6-methyl-4-(tetrahydro-2H-pyran-4-ylamino)-1H-pyrazolo[3,4-b]pyridin-5-yl]methyl}-1,3-thiazole-5-carboxamide]: the IC50 was 0.126 to 1 nM.
For the compound `CCn1ncc2c(NC3CCOCC3)c(CNC(=O)c3ccsc3)c(C)nc21` [Example 227, N-{[1-ethyl-6-methyl-4-(tetrahydro-2H-pyran-4-ylamino)-1H-pyrazolo[3,4-b]pyridin-5-yl]methyl}-3-thiophenecarboxamide], the IC50 was 0.126 to 1 nM.
Regarding `CCn1ncc2c(NC3CCOCC3)c(CNC(=O)c3cnc(C)cn3)c(C)nc21` [Example 228, N-{[1-ethyl-6-methyl-4-(tetrahydro-2H-pyran-4-ylamino)-1H-pyrazolo[3,4-b]pyridin-5-yl]methyl}-5-methyl-2-pyrazinecarboxamide], the IC50 was 0.126 to 1 nM.
As for `CCn1ncc2c(NC3CCOCC3)c(CNC(=O)c3ccn(C)n3)c(C)nc21` [Example 229, N-{[1-ethyl-6-methyl-4-(tetrahydro-2H-pyran-4-ylamino)-1H-pyrazolo[3,4-b]pyridin-5-yl]methyl}-1-methyl-1H-pyrazole-3-carboxamide], the IC50 is 0.126 to 1 nM.
Consider `CCc1nc2c(cnn2CC)c(NC2CCOCC2)c1CNC(=O)c1ccncc1F` [Example 231, N-{[1,6-diethyl-4-(tetrahydro-2H-pyran-4-ylamino)-1H-pyrazolo[3,4-b]pyridin-5-yl]methyl}-3-fluoro-4-pyridinecarboxamide], for which the IC50 was 0.126 to 1 nM.
